Experimental data taken from patent publication US4007201A, “Novel pyrazole derivatives” (Kyorin Pharmaceutical Co. Ltd., priority 1975, dated 1977).
Like-named read-outs stand apart in the source and are kept apart here.

Legend:
[1] = test system: serum FFA level in alloxan diabetic rats; assay: Serum FFA level in alloxan diabetic rats, 10 consecutive days; format: in vivo, male Sprague Dawley rats
Experimental: (§1) These new compounds of the present invention are very useful as anti-diabetic agents, which is supported from the following pharmacological studies. The animals used for the pharmacological studies were male Sprague Dawley rats exept otherwise noted. 1. Hypoglycemic activity in non-diabetic rats (screening test)
(§2) Alloxan diabetic rats were obtained as follows. Namely, 2.5% fresh solution of alloxan (50mg/kg) was injected into the tail vein of male rats, and the rats were daily injected with insulin (1-4 units/day) from the 7th day after the administration of alloxan. The alloxan diabetic rats which were survived for more than 2 months with daily injection of insulin were used. The alloxan diabetic rats were fasted for 24 hours after the last treatment with insulin, and then the compound of the present invention was orally administered. The blood glucose levels were determined by the micro method of Momose before and 2, 4 and 6 hours after the administration.
(§3) The alloxan diabetic rats which were prepared and then preserved for 6 months with insulin as described in the previous experiment were used.

[2] = test system: elevated blood glucose levels in adrenalectomized rats induced by hydrocortisone acetate; assay: Hydrocortisone acetate-induced hyperglycemia in adrenalectomized rats; format: in vivo, male Sprague Dawley rats; conditions: 4 mg/kg; hydrocortisone acetate intravenous
[3] = test system: elevated blood glucose levels in adrenalectomized rats induced by adrenalin; assay: Adrenalin-induced hyperglycemia in adrenalectomized rats; format: in vivo, male Sprague Dawley rats; conditions: 4 mg/kg; adrenalin (50 mg/kg) subcutaneous
[4] = test system: serum FFA level in alloxan diabetic rats; assay: Serum FFA level in alloxan diabetic rats loaded with much quantity of glucose; format: in vivo, male Sprague Dawley rats; conditions: compound 4 12.5 and 100 mg/kg, phenformin 100mg/kg; oral with 2g/kg of glucose; 3 hours
Experimental: as §1
Respective dose of the compound 4 (12.5 and 100 mg/kg) together with 2g/kg of glucose was orally administered to the alloxan diabetic rats.

[5] = test system: blood glucose level in non-diabetic rats; assay: Hypoglycemic activity in non-diabetic rats (screening test); format: in vivo, male Sprague Dawley rats; conditions: Rattus norvegicus, 100 mg/kg oral, fasted, glucose s.c.
Experimental: as §1
The rats were fasted for 16 - 18 hours prior to the experiment and those weighing 140 - 160g were used. Glucose solution (100 mg/0.5ml/150g body weight) was subcutaneously injected on the fasted rats. Each of the present compounds was suspended in 1% carboxymethyl cellulose (CMC), and about 0.5 ml of the suspension (corresponding to 100 mg/kg of the compound per body weight) was orally administered. Blood samples were taken from the tail vein of the rats at 2 and 5 hours after the administration, and the blood glucose level in each sample (0.1 ml) was determined by the micro method of Momose as described in SOGO-RINSHO 11, 120 (1962).
3,5-Dinitrophthalic acid is reduced with glucose to stable orange-red azo-compound via red hydroxyaminophthalic acid in basic media.
To 0.5ml of water was added 0.1ml of blood and shaken to hemolyze, and to which was added 1.7ml of 0.06N barium hydroxide solution. To the resulting dark-brown solution was added 1.7ml of zinc sulfate solution (1g/dl), and which was shaken thoroughly and allowed to stand for 2-3min followed by centrifugation.
One ml of 3,5-dinitrophthalic acid solution (1.5g of monopyridinium-3,5-dinitrophthalate in 500ml of water) and 1 ml of sodium carbonatesodium hyposulfite solution (125-25g/500ml) were added to 2ml of spernatant solution. The solution was heated at 100° C for 10 min. After cooling with running water for 3 min, water was added to make 20ml.
To 2ml of water were added 3,5-dinitrophthalic acid solution and an alkaline solution, and the solution was treated as mentioned above.
As the absorbance of reference at 450nm was adjusted to 0, the absorbance of sample corresponded to blood glucose level.

[6] = test system: serum triglyceride level in alloxan diabetic rats; assay: Serum triglyceride level in alloxan diabetic rats, 10 consecutive days; format: in vivo, male Sprague Dawley rats
Experimental: The animals used for the pharmacological studies were male Sprague Dawley rats exept otherwise noted. 1. Hypoglycemic activity in non-diabetic rats (screening test)
as §2, §3

[7] = test system: blood glucose level in streptozotocin-diabetic rats; assay: Hypoglycemic effect in streptozotocin-diabetic rats; format: in vivo, male Sprague Dawley rats; conditions: for Blood glucose level Before: before (baseline); for Hypoglycemic effect in streptozotocin-diabetic rats (in words): oral
Experimental: The animals used for the pharmacological studies were male Sprague Dawley rats exept otherwise noted. 1. […]
The rats were fasted for 16 hours, and then streptozotocin was intravenously injected in a dose of 65 mg/kg. Oral administration of the compound 4 was performed at 48 hours after the injection of streptozotocin. Blood samples were taken at 4 hours after the oral administration, and the blood glucose level in each sample was determined.

Acute toxicity in rats = format: in vivo
From the text: (§4) Thus, the toxicity of the present compound was considered to be extremely low.

[8] = test system: blood glucose level in adrenalectomized rats; assay: Hypoglycemic effect in adrenalectomized rats; format: in vivo, male Sprague Dawley rats; conditions: for Reduction % from control / Blood glucose: 2 hours; for Blood glucose: ± SE
From the text: as §1
The rats were adrenalectomized (both left and right adrenal glands) and were bred for 6-7 days by using 1% saline solution as for drinking water. The adrenalectomized rats were then fasted for 16-18 hours prior to the experiment. Glucose loading (100 mg/150g body weight) was performed by a subcutaneous administration of glucose solution on the back of the rats. Immediately after the glucose loading, the compound 4 suspended in 1% CMC was orally administered. Two hours after the oral administration, blood was obtained from the vena cava candalis of the rats under anesthesia with sodium pentobarbital. Blood glucose level was determined by the method of Momose.

Acute toxicity in mice = format: in vivo
From the text: as §4

[9] = test system: blood glucose level in non-diabetic rats; assay: Blood glucose level in non-diabetic rats at 90 minutes; format: in vivo, male Sprague Dawley rats; conditions: 100 mg/kg oral
Experimental: as §1
The rats were fasted for 16-18 hours, and those weighing 130-160g were used. The compound 4 suspended in 1% CMC was orally administered to the fasted rats, and at 90 minutes after administration blood was drawn from the […] vena cava under anesthesia with sodium pentobarbital. The blood glucose level was determined by the method of Momose, and the serum FFA level was determined by the method of Itaya and Ui as described in J. Lipid Res., 6, 16 (1965), respectively.

[10] = test system: serum cholesterol level in alloxan diabetic rats; assay: Serum cholesterol level in alloxan diabetic rats, 10 consecutive days; format: in vivo, male Sprague Dawley rats
Experimental: as §1, §2, §3

[11] = 100 mg/kg, 10 consecutive days, control = 100
[12] = 2 hours, read-out: Reduction % of blood glucose from control after 2 hours
[13] = 5 hours, read-out: Reduction % of blood glucose from control after 5 hours
[14] = Rattus norvegicus, 100 mg/kg oral, 4 hours
[15] = maximum dose technically possible

Cc1cc(C)n(C(=O)CNS(=O)(=O)c2ccc(Cl)cc2)n1 [Example 4, 1-(N-p-chlorobenzenesulfonyl-glycyl)-3,5-dimethylpyrazole]
FFA ([1]; 100 mg/kg, 10 consecutive days): 28.5 ± 7.6 μ Eq/dl serum
FFA, relative to control (100) [1, 11]: 44.0
Effect on serum FFA level, 10 days (in words) ([1]; oral, 10 days): significantly reduced
Hypoglycemic activity on elevated blood glucose induced by hydrocortisone acetate [2]: exerted its hypoglycemic activity on elevated blood glucose levels in adrenalectomized rats
Hypoglycemic activity against hyperglycemia induced by adrenalin [3]: particularly effective against the hyperglycemia induced by adrenalin
Effect on serum FFA level (in words) [4]: significantly lowered at 3 hours after the administration (p<0.005)
inhibition in vivo at 100 mg/kg [5, 12]: 41.9%
inhibition in vivo at 100 mg/kg [5, 13]: 25.2%
Triglyceride ([6]; 100 mg/kg, 10 consecutive days): 22.1 ± 4.6 mg/dl serum
Triglyceride, relative to control (100) [6, 11]: 40.1
Effect on serum triglyceride level, 10 days (in words) ([6]; oral, 10 days): significantly reduced
Blood glucose level Before ([7]; 6.25 mg/kg oral group): 425.3 ± 10.5 mg %
Blood glucose level 4 hours ([7]; 6.25 mg/kg oral, 4 hours): 263.2 ± 26.6 mg %
Blood glucose level Before ([7]; 25 mg/kg oral group): 415.8 ± 12.2 mg %
Blood glucose level 4 hours ([7]; 25 mg/kg oral, 4 hours): 251.2 ± 21.8 mg %
Blood glucose level Before ([7]; 100 mg/kg oral group): 411.5 ± 16.9 mg %
Blood glucose level 4 hours ([7]; 100 mg/kg oral, 4 hours): 231.4 ± 33.3 mg %
inhibition at 6.25 mg/kg ([7]; Rattus norvegicus, 6.25 mg/kg oral, 4 hours): 61.9 ± 6.2%
inhibition at 25 mg/kg ([7]; Rattus norvegicus, 25 mg/kg oral, 4 hours): 59.8 ± 3.8%
inhibition at 100 mg/kg [7, 14]: 54.3 ± 6.4%
Hypoglycemic effect in streptozotocin-diabetic rats (in words) ([7]; 4 hours): markedly reduced the blood glucose level
Maximum oral dose without death (Acute toxicity in rats; [15]): about 17 g/kg
Mortality (Acute toxicity in rats; oral, up to about 17g/kg): no mice or rats suffered death
Reduction of the blood glucose level (in words) ([8]; 0.125 mg/kg oral): significantly reduced the blood glucose level even at low dose of 0.125 mg/kg
Reduction % from control ([8]; 0.125 mg/kg oral): 51.9%
Blood glucose ([8]; 0.125 mg/kg oral): 37.9 ± 5.5 mg %
Reduction % from control ([8]; 0.25 mg/kg oral): 70.4%
Blood glucose ([8]; 0.25 mg/kg oral): 23.3 ± 4.0 mg %
Reduction % from control ([8]; 0.50 mg/kg oral): 77.5%
Blood glucose ([8]; 0.50 mg/kg oral): 17.8 ± 3.6 mg %
Reduction % from control ([8]; 1.0 mg/kg oral): 83.6%
Blood glucose ([8]; 1.0 mg/kg oral): 12.9 ± 1.4 mg %
Reduction % from control ([8]; 2.0 mg/kg oral): 81.6%
Blood glucose ([8]; 2.0 mg/kg oral): 14.5 ± 3.2 mg %
Reduction % from control ([8]; 4.0 mg/kg oral): 81.6%
Blood glucose ([8]; 4.0 mg/kg oral): 14.6 ± 2.9 mg %
Maximum oral dose without death (Acute toxicity in mice; [15]): about 17 g/kg
Mortality (Acute toxicity in mice; oral, up to about 17g/kg): no mice or rats suffered death
Blood glucose level [9]: 66.5 ± 6.0 mg/dL
Effect on blood glucose level (in words) [9]: significantly lowered the blood glucose level
Cholesterol ([10]; 100 mg/kg, 10 consecutive days): 46.1 ± 2.9 mg/dl serum
Cholesterol, relative to control (100) [10, 11]: 77.6
Effect on serum cholesterol level, 10 days (in words) ([10]; oral, 10 days): significantly reduced

CCCCNC(=O)NS(=O)(=O)c1ccc(C)cc1 [Tolbutamide, reference compound]
inhibition in vivo at 100 mg/kg [5, 12]: 54.1%
inhibition in vivo at 100 mg/kg [5, 13]: 52.4%
Blood glucose level Before ([7]; 100 mg/kg oral group): 413.9 ± 10.2 mg %
Blood glucose level 4 hours ([7]; 100 mg/kg oral, 4 hours): 327.8 ± 11.3 mg %
inhibition at 100 mg/kg [7, 14]: 79.4 ± 2.7%
Hypoglycemic effect in streptozotocin-diabetic rats (in words) ([7]; 4 hours): did not have a potent hypoglycemic activity
Reduction % from control ([8]; 15 mg/kg oral): 42.0%
Blood glucose ([8]; 15 mg/kg oral): 45.7 ± 7.3 mg %
Reduction % from control ([8]; 30 mg/kg oral): 79.2%
Blood glucose ([8]; 30 mg/kg oral): 16.4 ± 2.1 mg %
Reduction % from control ([8]; 60 mg/kg oral): 87.9%
Blood glucose ([8]; 60 mg/kg oral): 9.5 ± 0.6 mg %
Blood glucose level [9]: 57.7 ± 12.1 mg/dL
Effect on blood glucose level (in words) [9]: significantly lowered the blood glucose level
